Values quoted from earlier work, collected in PMC11261124 (Poultry Science, 2024).

Experiments:
HSV-2 = settings: read-out: IC50 against HSV-2

SMILES | IC50 (HSV-2) [nM] | anti-HIV activity IC50 (HIV) [µg/mL]
COc1ccc2c(c1)[nH]c1c(C)nccc12 [Harmine] | 1470 | 
COc1cn2c3ccccc3c3ccnc(c1=O)c32 [Drymaritin] |  | 0.699
